Patent US20240025922A1, “TETRAHYDROPYRIDO[3,4-d]PYRIMIDINES AS HPK1 INHIBITORS” (Merck Patent GmbH, priority 2022, published 2024)

Legend:
[1] = target: HPK1 (SLP76 phosphorylation at Ser376 in Jurkat and EL-4 cells) (Homo sapiens, UniProt Q92918); format: cell-based; conditions: αCD3/αCD28 Dynabeads stimulated cells, pSLP76 (Ser376) detection; read-out: HPK1 pSLP76 IC50
Procedure, shortened: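 Phospho-SLP76 (Ser376) in lysates measured by AlphaLISA for human Jurkat and by 19 h HTRF for mouse EL-4, giving % inhibition and IC50. Compounds applied 60 min before αCD3/αCD28 bead stimulation at 37 °C, lasting 15 min (Jurkat) or 30 min (EL-4).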

[2] = target: full-length human HPK1 (MAP4K1) (Homo sapiens (Human), UniProt Q92918); assay: HPK1 Kinase Assay (Biochemical Assay), ADP-Glo; conditions: GST-HPK1 3.2 nM, 10 μM ATP, MBP substrate, read-out: HPK1 enzymatic IC50
Sequence of full-length human HPK1 (MAP4K1) (Q92918 whole entry): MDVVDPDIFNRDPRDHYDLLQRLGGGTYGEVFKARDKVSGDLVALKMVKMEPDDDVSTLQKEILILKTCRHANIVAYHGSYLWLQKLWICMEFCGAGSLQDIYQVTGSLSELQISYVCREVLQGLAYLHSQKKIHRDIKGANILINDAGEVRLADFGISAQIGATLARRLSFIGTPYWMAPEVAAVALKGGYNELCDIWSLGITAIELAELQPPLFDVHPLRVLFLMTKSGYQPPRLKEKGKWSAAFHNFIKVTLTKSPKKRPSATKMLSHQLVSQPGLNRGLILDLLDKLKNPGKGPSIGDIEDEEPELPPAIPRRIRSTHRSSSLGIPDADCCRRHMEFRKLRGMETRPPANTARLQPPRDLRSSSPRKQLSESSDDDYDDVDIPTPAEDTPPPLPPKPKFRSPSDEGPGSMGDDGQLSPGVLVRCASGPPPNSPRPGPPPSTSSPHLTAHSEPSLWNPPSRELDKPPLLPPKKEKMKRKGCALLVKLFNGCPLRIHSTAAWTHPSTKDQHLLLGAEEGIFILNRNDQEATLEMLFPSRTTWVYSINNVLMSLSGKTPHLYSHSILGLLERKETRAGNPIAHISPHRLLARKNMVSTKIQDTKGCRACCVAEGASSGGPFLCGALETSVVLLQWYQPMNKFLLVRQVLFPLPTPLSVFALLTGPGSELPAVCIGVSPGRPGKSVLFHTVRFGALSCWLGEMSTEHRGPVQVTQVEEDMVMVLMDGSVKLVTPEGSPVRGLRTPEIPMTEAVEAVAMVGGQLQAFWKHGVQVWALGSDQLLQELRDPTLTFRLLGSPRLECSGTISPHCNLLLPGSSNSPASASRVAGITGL
Procedure, shortened: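 ADP-Glo luminescence after a 120-min kinase reaction gave percent inhibition and IC50. The enzyme was Sf21-expressed N-terminal GST full-length human HPK1 at 3.2 nM in HEPES pH 7.5 buffer with MgCl2, DTT, Brij-35 and BSA.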

Sequence of HPK1 (SLP76 phosphorylation at Ser376 in Jurkat and EL-4 cells) (Q92918 whole entry, looked up): as the sequence (Q92918 whole entry) above

Row | IC50 [1] [nM] | IC50 [2] [nM] | Compound
1 | < 500 | < 100 | Cc1cc(Nc2ncc3c(n2)CN(c2cnc4c(c2Cl)NCCO4)CC3)ccc1NC(=O)CN1CCC1 [Example 121, 2-(azetidin-1-yl)-N-(4-((7-(8-chloro-2,3-dihydro-1H-pyrido[2,3-b][1,4]oxazin-7-yl)-5,6,7,8-tetrahydropyrido[3,4-d]pyrimidin-2-yl)amino)-2-methylphenyl)acetamide]
2 | 500 to 1000 | < 100 | Cc1cc(Nc2cc3c(cn2)CCN(c2cnc4c(c2Cl)NCCO4)C3)ccc1NC(=O)CN1CCOCC1 [Example 122, N-(4-((6-(8-chloro-2,3-dihydro-1H-pyrido[2,3-b][1,4]oxazin-7-yl)-5,6,7,8-tetrahydro-2,6-naphthyridin-3-yl)amino)-2-methylphenyl)-2-morpholinoacetamide]
3 | 500 to 1000 | < 100 | Cc1c(N2CCc3cnc(Nc4ccc(NCCN(C)C)c(F)c4)cc3C2)cnc2c1NCCO2 [Example 124, N1-(2-(dimethylamino)ethyl)-2-fluoro-N4-(6-(8-methyl-2,3-dihydro-1H-pyrido[2,3-b][1,4]oxazin-7-yl)-5,6,7,8-tetrahydro-2,6-naphthyridin-3-yl)benzene-1,4-diamine]
4 | > 1000 | < 100 | Cc1c(N2CCc3cnc(Nc4ccc(CN5CCCC5)cc4)nc3C2)cnc2c1NCCO2 [Example 125, 7-{8-methyl-1H,2H,3H-pyrido[2,3-b][1,4]oxazin-7-yl}-N-{4-[(pyrrolidin-1-yl)methyl]phenyl}-5H,6H,7H,8H-pyrido[3,4-d]pyrimidin-2-amine]
5 | < 500 | < 100 | Cc1c(N2CCc3cnc(Nc4ccc(Cn5cncn5)cc4)nc3C2)cnc2c1NCCO2 [Example 126, 7-{8-methyl-1H,2H,3H-pyrido[2,3-b][1,4]oxazin-7-yl}-N-{4-[(1H-1,2,4-triazol-1-yl)methyl]phenyl}-5H,6H,7H,8H-pyrido[3,4-d]pyrimidin-2-amine]
6 | < 500 | < 100 | Cc1c(N2CCc3cnc(Nc4ccc(Cn5ccnc5)cc4)nc3C2)cnc2c1NCCO2 [Example 127, N-{4-[(1H-imidazol-1-yl)methyl]phenyl}-7-{8-methyl-1H,2H,3H-pyrido[2,3-b][1,4]oxazin-7-yl}-5H,6H,7H,8H-pyrido[3,4-d]pyrimidin-2-amine]
7 | < 500 | < 100 | Cc1c(N2CCc3cnc(Nc4ccc(CS(N)(=O)=O)cc4)nc3C2)cnc2c1NCCO2 [Example 128, {4-[(7-{8-methyl-1H,2H,3H-pyrido[2,3-b][1,4]oxazin-7-yl}-5H,6H,7H,8H-pyrido[3,4-d]pyrimidin-2-yl)amino]phenyl}methanesulfonamide]
8 | 500 to 1000 | < 100 | CNC(=O)c1ccc(Nc2ncc3c(n2)CN(c2cnc4c(c2Cl)NCCO4)CC3)cc1C [Example 130, 4-[(7-{8-chloro-1H,2H,3H-pyrido[2,3-b][1,4]oxazin-7-yl}-5H,6H,7H,8H-pyrido[3,4-d]pyrimidin-2-yl)amino]-N,2-dimethylbenzamide]
9 | < 500 | < 100 | CS(=O)(=O)Cc1ccc(Nc2ncc3c(n2)CN(c2cnc4c(c2C2CC2)NCCO4)CC3)cc1 [Example 132, 7-{8-cyclopropyl-1H,2H,3H-pyrido[2,3-b][1,4]oxazin-7-yl}-N-[4-(methanesulfonylmethyl)phenyl]-5H,6H,7H,8H-pyrido[3,4-d]pyrimidin-2-amine]
10 | < 500 | < 100 | Cc1c(N2CCc3cnc(Nc4ccc(CO)cc4)nc3C2)cnc2c1NCCO2 [Example 133, {4-[(7-{8-methyl-1H,2H,3H-pyrido[2,3-b][1,4]oxazin-7-yl}-5H,6H,7H,8H-pyrido[3,4-d]pyrimidin-2-yl)amino]phenyl}methanol]
11 | < 500 | < 100 | COCCS(=O)(=O)Cc1ccc(Nc2ncc3c(n2)CN(c2cnc4c(c2C)NCCO4)CC3)cc1 [Example 135, N-{4-[(2-methoxyethanesulfonyl)methyl]phenyl}-7-{8-methyl-1H,2H,3H-pyrido[2,3-b][1,4]oxazin-7-yl}-5H,6H,7H,8H-pyrido[3,4-d]pyrimidin-2-amine]
12 | < 500 | < 100 | Cc1c(N2CCc3cnc(Nc4ccc(CS(C)(=O)=O)cc4)nc3C2)cnc2c(F)c[nH]c12 [Example 138, 7-{3-fluoro-7-methyl-1H-pyrrolo[3,2-b]pyridin-6-yl}-N-[4-(methanesulfonylmethyl)phenyl]-5H,6H,7H,8H-pyrido[3,4-d]pyrimidin-2-amine]
13 | < 500 | < 100 | Cc1c(N2CCc3cnc(Nc4ccc(CS(C)(=O)=O)cc4)nc3C2)cnc2c1NCC1(CC1)O2 [Example 139, N-[4-(methanesulfonylmethyl)phenyl]-7-{8′-methyl-1′,2′-dihydrospiro[cyclopropane-1,3′-pyrido[2,3-b][1,4]oxazin]-7′-yl}-5H,6H,7H,8H-pyrido[3,4-d]pyrimidin-2-amine]
14 | < 500 | < 100 | Cc1c(N2CCc3cnc(Nc4cc5n(n4)CC(=O)N(CC(F)F)CC5)cc3C2)cnc2c1NCCO2 [Example 140, 6-(2,2-difluoroethyl)-2-[(6-{8-methyl-1H,2H,3H-pyrido[2,3-b][1,4]oxazin-7-yl}-5,6,7,8-tetrahydro-2,6-naphthyridin-3-yl)amino]-4H,5H,6H,7H,8H-pyrazolo[1,5-d][1,4]diazepin-7-one]
15 | > 1000 | < 100 | Cc1c(N2CCc3cnc(Nc4ccc(CS(C)(=O)=O)cc4)nc3C2)cnc2c1NCCC2=O [Example 142, 7-(2-{[4-(methanesulfonylmethyl)phenyl]amino}-5H,6H,7H,8H-pyrido[3,4-d]pyrimidin-7-yl)-8-methyl-1,2,3,4-tetrahydro-1,5-naphthyridin-4-one]
16 | < 500 | < 100 | Cc1c(N2CCc3cnc(Nc4ccc(CS(C)(=O)=O)cc4)nc3C2)cnc2c1NCCC2O (centres unmarked) [Example 143, 7-(2-{[4-(methanesulfonylmethyl)phenyl]amino}-5H,6H,7H,8H-pyrido[3,4-d]pyrimidin-7-yl)-8-methyl-1,2,3,4-tetrahydro-1,5-naphthyridin-4-ol]
17 | < 500 | < 100 | Cc1c(N2CCc3cnc(Nc4ccc(Cn5cncn5)cc4)cc3C2)cnc2c1NCCO2 [Example 144, 6-{8-methyl-1H,2H,3H-pyrido[2,3-b][1,4]oxazin-7-yl}-N-{4-[(1H-1,2,4-triazol-1-yl)methyl]phenyl}-5,6,7,8-tetrahydro-2,6-naphthyridin-3-amine]
18 | < 500 | < 100 | CCc1c(N2CCc3cnc(Nc4ccc(CS(C)(=O)=O)cc4)nc3C2)cnc2c1NCCO2 [Example 145, 7-{8-ethyl-1H,2H,3H-pyrido[2,3-b][1,4]oxazin-7-yl}-N-[4-(methanesulfonylmethyl)phenyl]-5H,6H,7H,8H-pyrido[3,4-d]pyrimidin-2-amine]
19 | < 500 | < 100 | COCCOCCS(=O)(=O)c1ccc(Nc2ncc3c(n2)CN(c2cnc4c(c2C)NCCO4)CC3)cc1 [Example 147, N-{4-[2-(2-methoxyethoxy)ethanesulfonyl]phenyl}-7-{8-methyl-1H,2H,3H-pyrido[2,3-b][1,4]oxazin-7-yl}-5H,6H,7H,8H-pyrido[3,4-d]pyrimidin-2-amine]
20 | < 500 | < 100 | Cc1c(N2CCc3cnc(Nc4ccc(CC#N)cc4)nc3C2)cnc2c1NCCO2 [Example 148, 2-{4-[(7-{8-methyl-1H,2H,3H-pyrido[2,3-b][1,4]oxazin-7-yl}-5H,6H,7H,8H-pyrido[3,4-d]pyrimidin-2-yl)amino]phenyl}acetonitrile; formic acid]
21 | < 500 | < 100 | Cc1c(N2CCc3cnc(Nc4ccc(CS(=O)(=O)N(C)C)cc4)cc3C2)cnc2c1NCCO2 [Example 150, N,N-dimethyl-1-{4-[(6-{8-methyl-1H,2H,3H-pyrido[2,3-b][1,4]oxazin-7-yl}-5,6,7,8-tetrahydro-2,6-naphthyridin-3-yl)amino]phenyl}methanesulfonamide]
22 | < 500 | < 100 | Cc1c(N2CCc3cnc(Nc4ccc(CC(=O)N5CC(F)(F)C5)cc4)nc3C2)cnc2c1NCCO2 [Example 151, 1-(3,3-difluoroazetidin-1-yl)-2-{4-[(7-{8-methyl-1H,2H,3H-pyrido[2,3-b][1,4]oxazin-7-yl}-5H,6H,7H,8H-pyrido[3,4-d]pyrimidin-2-yl)amino]phenyl}ethan-1-one]
23 | < 500 | < 100 | Cc1c(N2Cc3nc(Nc4ccc(CS(C)(=O)=O)cc4)ncc3C(F)(F)C2)cnc2c1NCCO2 [Example 152, 5,5-difluoro-N-[4-(methanesulfonylmethyl)phenyl]-7-{8-methyl-1H,2H,3H-pyrido[2,3-b][1,4]oxazin-7-yl}-5H,6H,7H,8H-pyrido[3,4-d]pyrimidin-2-amine]
24 | < 500 | < 100 | COCCN1CCc2cc(Nc3cc4c(cn3)CCN(c3cnc5c(c3C)NCCO5)C4)nn2CC1=O [Example 153, 6-(2-methoxyethyl)-2-[(6-{8-methyl-1H,2H,3H-pyrido[2,3-b][1,4]oxazin-7-yl}-5,6,7,8-tetrahydro-2,6-naphthyridin-3-yl)amino]-4H,5H,6H,7H,8H-pyrazolo[1,5-d][1,4]diazepin-7-one]
25 | < 500 | < 100 | Cc1c(N2CCc3cnc(Nc4ccc(CS(=O)(=O)CCN(C)C)cc4)nc3C2)cnc2c1NCCO2 [Example 154, N-(4-{[2-(dimethylamino)ethanesulfonyl]methyl}phenyl)-7-{8-methyl-1H,2H,3H-pyrido[2,3-b][1,4]oxazin-7-yl}-5H,6H,7H,8H-pyrido[3,4-d]pyrimidin-2-amine]
